In patent US9149038B2, “4-amino-6-(heterocyclic)picolinates and 6-amino-2-(heterocyclic)pyrimidine-4-carboxylates and their use as herbicides” (Dow AgroSciences LLC, priority 2013, dated 2015):
Like-named read-outs stand apart in the source and are kept apart here.

Test system: Wheat and Barley and weed species
Assay: Post-Emergent Test III: postemergent herbicidal activity in wheat and barley, visual rating after 21 d and probit GR20/GR50/GR80/GR90 (Tables 9-13)
Format: in vivo
Details: for pest or weed control at 17.5 g/ha / pest or weed control at 35 g/ha / pest or weed control at 70 g/ha: post-emergence, 504 h
In short: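 Greenhouse plants (~18/17 °C, 14 h photoperiod) at second–third true leaf stage sprayed at 187 L/ha with a high rate and ½× to 1/16× serial dilutions. Visual injury 0–100% versus solvent-blank controls scored at 21 d; GR20, GR50, GR80 and GR90 derived by probit analysis across rates.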

In the case of `Nc1c(F)c(-c2ccc3c(c2F)OC(F)(F)O3)nc(C(=O)O)c1Cl` [Compound 11], the “GR50 ALOMY” value (ALOMY black-grass (Alopecurus myosuroides), growth reduction of 50%, probit analysis) is reported as 41 g ai/ha, the “GR80 ALOMY” value (ALOMY black-grass (Alopecurus myosuroides), growth reduction of 80%, probit analysis) is reported as greater than 70 g ai/ha and the “GR90 ALOMY” value (ALOMY black-grass (Alopecurus myosuroides), growth reduction of 90%, probit analysis) is reported as greater than 70 g ai/ha. For the same molecule, the “GR50 APESV” value (APESV bentgrass (Apera spica-venti), growth reduction of 50%, probit analysis) was 25 g ai/ha, the “GR80 APESV” value (APESV bentgrass (Apera spica-venti), growth reduction of 80%, probit analysis) was 52 g ai/ha and the “GR90 APESV” value (APESV bentgrass (Apera spica-venti), growth reduction of 90%, probit analysis) was greater than 70 g ai/ha. For the same molecule, the “GR20 HORVS” value (HORVS barley, spring (crop), growth reduction of 20%, probit analysis) was 3 g ai/ha, the pest or weed control at 17.5 g/ha (Hordeum vulgare, HORVS barley, spring (crop), 17.5 g ai/ha, read-out: Visual Growth Reduction (%) 21 Days After Application HORVS) was 60 to 74% and the pest or weed control at 35 g/ha (Hordeum vulgare, HORVS barley, spring (crop), 35 g ai/ha, read-out: Visual Growth Reduction (%) 21 Days After Application HORVS) was 60 to 74%. The pest or weed control at 70 g/ha (Hordeum vulgare, HORVS barley, spring (crop), 70 g ai/ha, read-out: Visual Growth Reduction (%) 21 Days After Application HORVS) was 85 to 94%, the “GR50 LOLSS” value (LOLSS ryegrass, growth reduction of 50%, probit analysis) was 31 g ai/ha and the “GR80 LOLSS” value (LOLSS ryegrass, growth reduction of 80%, probit analysis) was 62 g ai/ha. The “GR90 LOLSS” value (LOLSS ryegrass, growth reduction of 90%, probit analysis) was greater than 70 g ai/ha, the “Visual Growth Reduction (%) 21 Days After Application MATCH” value (MATCH wild chamomile (Matricaria recutita L.), 17.5 g ai/ha) was “G (0-29)” and the “Visual Growth Reduction (%) 21 Days After Application MATCH” value (MATCH wild chamomile (Matricaria recutita L.), 35 g ai/ha) was “F (30-44)”. For the same molecule, the “Visual Growth Reduction (%) 21 Days After Application MATCH” value (MATCH wild chamomile (Matricaria recutita L.), 70 g ai/ha) was “E (45-59)”, the “GR50 MATCH” value (MATCH wild chamomile (Matricaria recutita L.), growth reduction of 50%, probit analysis) was 65 g ai/ha and the “GR80 MATCH” value (MATCH wild chamomile (Matricaria recutita L.), growth reduction of 80%, probit analysis) was greater than 70 g ai/ha. The “GR90 MATCH” value (MATCH wild chamomile (Matricaria recutita L.), growth reduction of 90%, probit analysis) was greater than 70 g ai/ha, the “GR50 SETVI” value (SETVI green foxtail (Setaria viridis), growth reduction of 50%, probit analysis) was 18 g ai/ha and the “GR80 SETVI” value (SETVI green foxtail (Setaria viridis), growth reduction of 80%, probit analysis) was 37 g ai/ha. For the same molecule, the “GR90 SETVI” value (SETVI green foxtail (Setaria viridis), growth reduction of 90%, probit analysis) was 53 g ai/ha, the “GR20 TRZAS” value (TRZAS wheat, spring (crop), growth reduction of 20%, probit analysis) was 0.12 g ai/ha and the pest or weed control at 17.5 g/ha (Triticum aestivum, TRZAS wheat, spring (crop), 17.5 g ai/ha, read-out: Visual Growth Reduction (%) 21 Days After Application TRZAS) was 75 to 84%. For the same molecule, the pest or weed control at 35 g/ha (Triticum aestivum, TRZAS wheat, spring (crop), 35 g ai/ha, read-out: Visual Growth Reduction (%) 21 Days After Application TRZAS) was 85 to 94%, the pest or weed control at 70 g/ha (Triticum aestivum, TRZAS wheat, spring (crop), 70 g ai/ha, read-out: Visual Growth Reduction (%) 21 Days After Application TRZAS) was 85 to 94% and the “Visual Growth Reduction (%) 21 Days After Application VERPE” value (VERPE bird's-eye speedwell (veronica persica), 17.5 g ai/ha) was “E (45-59)”. The “Visual Growth Reduction (%) 21 Days After Application VERPE” value (VERPE bird's-eye speedwell (veronica persica), 35 g ai/ha) was “D (60-74)”, the “Visual Growth Reduction (%) 21 Days After Application VERPE” value (VERPE bird's-eye speedwell (veronica persica), 70 g ai/ha) was “B (85-94)” and the “GR50 VERPE” value (VERPE bird's-eye speedwell (veronica persica), growth reduction of 50%, probit analysis) was 17 g ai/ha. For the same molecule, the “GR80 VERPE” value (VERPE bird's-eye speedwell (veronica persica), growth reduction of 80%, probit analysis) was 41 g ai/ha, the “GR90 VERPE” value (VERPE bird's-eye speedwell (veronica persica), growth reduction of 90%, probit analysis) was 65 g ai/ha and the pest or weed control at 17.5 g/ha (ALOMY black-grass (Alopecurus myosuroides), 17.5 g ai/ha, read-out: Visual Growth Reduction (%) 21 Days After Application ALOMY) was 30 to 44%. It also gave a pest or weed control at 35 g/ha (ALOMY black-grass (Alopecurus myosuroides), 35 g ai/ha, read-out: Visual Growth Reduction (%) 21 Days After Application ALOMY) of 45 to 59%, a pest or weed control at 70 g/ha (ALOMY black-grass (Alopecurus myosuroides), 70 g ai/ha, read-out: Visual Growth Reduction (%) 21 Days After Application ALOMY) of 60 to 74% and a pest or weed control at 17.5 g/ha (APESV bentgrass (Apera spica-venti), 17.5 g ai/ha, read-out: Visual Growth Reduction (%) 21 Days After Application APESV) of 30 to 44%. The pest or weed control at 35 g/ha (APESV bentgrass (Apera spica-venti), 35 g ai/ha, read-out: Visual Growth Reduction (%) 21 Days After Application APESV) was 60 to 74%, the pest or weed control at 70 g/ha (APESV bentgrass (Apera spica-venti), 70 g ai/ha, read-out: Visual Growth Reduction (%) 21 Days After Application APESV) was 85 to 94% and the pest or weed control at 17.5 g/ha (LOLSS ryegrass, 17.5 g ai/ha, read-out: Visual Growth Reduction (%) 21 Days After Application LOLSS) was 45 to 59%. For the same molecule, the pest or weed control at 35 g/ha (LOLSS ryegrass, 35 g ai/ha, read-out: Visual Growth Reduction (%) 21 Days After Application LOLSS) was 60 to 74%, the pest or weed control at 70 g/ha (LOLSS ryegrass, 70 g ai/ha, read-out: Visual Growth Reduction (%) 21 Days After Application LOLSS) was 75 to 84% and the pest or weed control at 17.5 g/ha (SETVI green foxtail (Setaria viridis), 17.5 g ai/ha, read-out: Visual Growth Reduction (%) 21 Days After Application SETVI) was 45 to 59%. For the same molecule, the pest or weed control at 35 g/ha (SETVI green foxtail (Setaria viridis), 35 g ai/ha, read-out: Visual Growth Reduction (%) 21 Days After Application SETVI) was 75 to 84% and the pest or weed control at 70 g/ha (SETVI green foxtail (Setaria viridis), 70 g ai/ha, read-out: Visual Growth Reduction (%) 21 Days After Application SETVI) was 85 to 94%.
